{"source": "ChEMBL document CHEMBL5505964", "about": "“HDAC/NAMPT dual inhibitors overcome initial drug-resistance in p53-null leukemia cells” (Eur J Med Chem, 2024)", "key": {"MV4-11": {"test_system": "MV4-11", "assay": "cells", "assay_type": "functional, cell-based", "settings": "Homo sapiens; for IC50: MV4-11, 48 h; for GI50: MV4-11, time 48 hrs"}, "Histone deacetylase 1": {"biological_target": "Histone deacetylase 1 (Homo sapiens, UniProt Q13547)", "sequence (Q13547 whole entry, the tested form may be a part)": "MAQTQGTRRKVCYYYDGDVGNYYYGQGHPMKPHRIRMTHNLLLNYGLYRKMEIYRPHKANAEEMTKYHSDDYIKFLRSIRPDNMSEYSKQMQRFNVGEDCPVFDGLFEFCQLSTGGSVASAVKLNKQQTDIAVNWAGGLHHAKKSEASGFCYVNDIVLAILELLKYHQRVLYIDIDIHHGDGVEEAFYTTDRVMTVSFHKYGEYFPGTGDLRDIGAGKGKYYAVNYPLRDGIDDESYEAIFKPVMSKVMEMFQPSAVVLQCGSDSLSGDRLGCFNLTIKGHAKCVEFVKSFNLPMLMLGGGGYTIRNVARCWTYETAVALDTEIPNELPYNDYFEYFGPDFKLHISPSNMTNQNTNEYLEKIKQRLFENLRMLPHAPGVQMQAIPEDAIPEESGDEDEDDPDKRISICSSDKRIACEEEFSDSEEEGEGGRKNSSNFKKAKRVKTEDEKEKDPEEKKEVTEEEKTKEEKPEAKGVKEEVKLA", "assay": "(§1) Inhibition of C-terminal 6XHis-tagged/FLAG-tagged full length human recombinant HDAC1 (1 to 482 residues) expressed in baculovirus-infected Sf9 cells using Boc-Lys-(acetyl)-AMC as substrate preincubated with enzyme for 1 hr followed by substrate addition and measured after 2 hrs by fluorescence analysis"}, "Histone deacetylase 2": {"biological_target": "Histone deacetylase 2 (Homo sapiens, UniProt Q92769)", "sequence (Q92769 whole entry)": "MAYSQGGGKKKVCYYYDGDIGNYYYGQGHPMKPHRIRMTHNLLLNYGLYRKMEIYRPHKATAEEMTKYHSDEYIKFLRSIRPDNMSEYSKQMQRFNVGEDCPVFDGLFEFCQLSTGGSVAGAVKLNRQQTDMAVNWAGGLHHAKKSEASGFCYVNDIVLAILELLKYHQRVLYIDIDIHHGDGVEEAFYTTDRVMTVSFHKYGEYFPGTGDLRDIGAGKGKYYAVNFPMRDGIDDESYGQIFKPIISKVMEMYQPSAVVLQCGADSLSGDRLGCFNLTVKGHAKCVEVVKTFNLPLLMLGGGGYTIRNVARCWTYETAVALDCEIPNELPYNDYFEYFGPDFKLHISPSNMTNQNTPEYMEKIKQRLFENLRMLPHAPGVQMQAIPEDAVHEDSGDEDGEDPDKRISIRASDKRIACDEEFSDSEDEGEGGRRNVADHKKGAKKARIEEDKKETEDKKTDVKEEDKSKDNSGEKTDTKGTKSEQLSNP", "assay": "biochemical", "assay_type": "cell-based, Sf9"}, "[1]": {"biological_target": "Histone deacetylase 3/Nuclear receptor corepressor 2 (HDAC3/NCoR2) (Homo sapiens, UniProt O15379)", "sequence (O15379 whole entry)": "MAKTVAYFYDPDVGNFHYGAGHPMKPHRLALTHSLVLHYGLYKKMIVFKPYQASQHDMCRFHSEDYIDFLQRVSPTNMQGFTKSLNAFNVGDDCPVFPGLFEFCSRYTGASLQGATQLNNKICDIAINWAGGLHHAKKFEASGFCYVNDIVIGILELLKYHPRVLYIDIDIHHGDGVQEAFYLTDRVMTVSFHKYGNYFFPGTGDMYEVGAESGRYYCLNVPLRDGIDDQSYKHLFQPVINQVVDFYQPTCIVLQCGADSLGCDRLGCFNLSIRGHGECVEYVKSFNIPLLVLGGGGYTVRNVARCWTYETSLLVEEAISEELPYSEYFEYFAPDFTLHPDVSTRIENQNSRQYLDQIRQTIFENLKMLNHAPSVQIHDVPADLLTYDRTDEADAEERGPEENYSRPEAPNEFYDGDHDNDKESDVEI", "sequence (Q9Y618 whole entry, further chain)": "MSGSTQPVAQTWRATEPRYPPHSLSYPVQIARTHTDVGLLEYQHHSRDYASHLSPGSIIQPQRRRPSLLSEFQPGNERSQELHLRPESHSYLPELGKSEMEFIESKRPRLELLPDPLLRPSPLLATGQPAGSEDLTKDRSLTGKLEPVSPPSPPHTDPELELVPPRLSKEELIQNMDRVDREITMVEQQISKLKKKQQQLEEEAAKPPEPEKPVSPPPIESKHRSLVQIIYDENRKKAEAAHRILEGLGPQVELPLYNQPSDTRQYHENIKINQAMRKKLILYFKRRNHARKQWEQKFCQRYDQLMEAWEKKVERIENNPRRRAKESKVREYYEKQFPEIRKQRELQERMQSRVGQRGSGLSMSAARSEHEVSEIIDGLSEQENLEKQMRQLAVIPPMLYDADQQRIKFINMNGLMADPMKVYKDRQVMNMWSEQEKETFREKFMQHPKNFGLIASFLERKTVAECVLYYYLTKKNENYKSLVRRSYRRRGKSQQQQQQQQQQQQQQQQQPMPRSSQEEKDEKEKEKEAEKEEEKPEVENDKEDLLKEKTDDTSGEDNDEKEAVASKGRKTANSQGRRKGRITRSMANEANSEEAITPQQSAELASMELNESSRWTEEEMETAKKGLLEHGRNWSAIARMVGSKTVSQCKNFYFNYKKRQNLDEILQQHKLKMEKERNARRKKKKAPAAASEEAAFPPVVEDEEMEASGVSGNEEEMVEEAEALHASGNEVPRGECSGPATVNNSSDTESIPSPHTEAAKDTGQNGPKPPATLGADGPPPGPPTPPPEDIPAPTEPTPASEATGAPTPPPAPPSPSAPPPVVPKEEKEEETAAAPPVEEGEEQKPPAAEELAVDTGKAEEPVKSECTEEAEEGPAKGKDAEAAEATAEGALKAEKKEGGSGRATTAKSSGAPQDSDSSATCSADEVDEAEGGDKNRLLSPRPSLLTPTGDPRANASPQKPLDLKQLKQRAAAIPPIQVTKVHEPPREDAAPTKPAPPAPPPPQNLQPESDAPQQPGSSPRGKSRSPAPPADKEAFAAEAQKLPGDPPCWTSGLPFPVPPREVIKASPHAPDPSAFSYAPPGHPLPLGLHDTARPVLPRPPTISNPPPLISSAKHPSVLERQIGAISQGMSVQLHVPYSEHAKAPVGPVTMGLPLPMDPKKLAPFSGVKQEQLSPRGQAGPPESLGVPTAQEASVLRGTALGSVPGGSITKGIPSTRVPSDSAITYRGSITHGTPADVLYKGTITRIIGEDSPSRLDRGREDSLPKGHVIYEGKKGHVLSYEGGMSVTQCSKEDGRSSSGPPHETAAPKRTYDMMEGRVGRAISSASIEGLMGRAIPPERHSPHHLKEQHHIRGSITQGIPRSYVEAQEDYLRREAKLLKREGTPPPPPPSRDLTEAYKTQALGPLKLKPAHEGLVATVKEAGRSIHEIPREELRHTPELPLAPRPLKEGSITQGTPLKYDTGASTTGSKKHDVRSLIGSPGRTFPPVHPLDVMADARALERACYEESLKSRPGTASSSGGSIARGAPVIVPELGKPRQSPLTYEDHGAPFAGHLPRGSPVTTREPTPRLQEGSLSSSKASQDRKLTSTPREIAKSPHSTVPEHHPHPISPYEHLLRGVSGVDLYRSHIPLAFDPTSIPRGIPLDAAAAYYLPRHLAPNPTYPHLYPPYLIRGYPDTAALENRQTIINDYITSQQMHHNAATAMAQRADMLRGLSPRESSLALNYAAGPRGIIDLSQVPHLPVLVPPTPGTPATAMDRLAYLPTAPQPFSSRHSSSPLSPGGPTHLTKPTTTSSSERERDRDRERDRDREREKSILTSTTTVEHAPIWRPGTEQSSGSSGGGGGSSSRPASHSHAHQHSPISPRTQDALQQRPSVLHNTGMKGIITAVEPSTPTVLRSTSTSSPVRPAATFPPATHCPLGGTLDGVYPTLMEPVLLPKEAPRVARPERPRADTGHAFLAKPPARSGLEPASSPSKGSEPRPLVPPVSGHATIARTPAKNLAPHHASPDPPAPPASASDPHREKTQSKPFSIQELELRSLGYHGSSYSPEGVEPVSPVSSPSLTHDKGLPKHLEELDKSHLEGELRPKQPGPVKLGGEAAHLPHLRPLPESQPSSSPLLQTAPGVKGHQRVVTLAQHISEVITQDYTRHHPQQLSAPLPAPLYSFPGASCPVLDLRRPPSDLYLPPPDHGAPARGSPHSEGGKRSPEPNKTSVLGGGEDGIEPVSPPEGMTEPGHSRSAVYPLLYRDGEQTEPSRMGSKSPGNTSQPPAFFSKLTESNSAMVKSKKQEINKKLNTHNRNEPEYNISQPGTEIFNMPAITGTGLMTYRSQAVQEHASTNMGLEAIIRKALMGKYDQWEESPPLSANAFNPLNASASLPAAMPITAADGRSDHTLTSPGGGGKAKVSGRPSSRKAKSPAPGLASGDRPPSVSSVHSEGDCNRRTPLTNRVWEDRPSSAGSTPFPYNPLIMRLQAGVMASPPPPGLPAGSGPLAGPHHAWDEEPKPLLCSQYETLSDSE", "assay": "as §1, with “His-tagged” for “6XHis-tagged/FLAG-tagged full length”, “HDAC3” for “recombinant HDAC1”, “428 residues)/N-terminal GST tagged human NCOR2 (395 to 489” for “482”"}, "[2]": {"biological_target": "T1, Nicotinamide phosphoribosyltransferase (Homo sapiens, UniProt P43490)", "T1 sequence (P43490 whole entry, the tested form may be a part)": "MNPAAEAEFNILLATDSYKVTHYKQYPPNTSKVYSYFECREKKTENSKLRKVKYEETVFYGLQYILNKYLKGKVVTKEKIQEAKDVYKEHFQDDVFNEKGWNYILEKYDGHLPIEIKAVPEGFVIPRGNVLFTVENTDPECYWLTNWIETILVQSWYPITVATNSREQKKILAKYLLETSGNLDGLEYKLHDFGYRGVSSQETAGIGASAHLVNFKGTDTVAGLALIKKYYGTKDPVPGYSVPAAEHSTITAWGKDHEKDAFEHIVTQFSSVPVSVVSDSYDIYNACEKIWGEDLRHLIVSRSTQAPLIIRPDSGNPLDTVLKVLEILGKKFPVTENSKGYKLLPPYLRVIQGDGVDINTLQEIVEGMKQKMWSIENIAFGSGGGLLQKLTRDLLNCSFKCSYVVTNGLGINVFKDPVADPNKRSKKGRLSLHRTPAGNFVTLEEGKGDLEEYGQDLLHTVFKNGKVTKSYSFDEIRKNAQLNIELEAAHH", "assay": "Inhibition of N-terminal GST-tagged human recombinant NAMPT (2 to 491 residues) expressed in Escherichia coli expression system incubated for 30 mins by fluorescence based analysis"}, "HL-60 [3]": {"test_system": "HL-60", "assay": "Antiproliferative activity against p53-null human HL-60 cells assessed as inhibition of cell growth incubated for 48 hrs by resazurin dye based fluorescence analysis", "assay_type": "functional"}, "[4]": {"assay": "Antiproliferative activity against p53-null human MONO-MAC-1 cells assessed as induction of cell death incubated for 48 hrs by resazurin dye based fluorescence analysis", "assay_type": "functional", "settings": "read-out: LD50 (the source's name)"}, "NB-4": {"test_system": "NB-4", "assay": "Antiproliferative activity against p53-null human NB4 cells assessed as induction of cell death incubated for 48 hrs by resazurin dye based fluorescence analysis", "assay_type": "functional", "settings": "read-out: LD50 (the source's name)"}, "[5]": {"assay": "Antiproliferative activity against p53-null human PL-21 cells assessed as induction of cell death incubated for 48 hrs by resazurin dye based fluorescence analysis", "assay_type": "functional", "settings": "read-out: LD50 (the source's name)"}, "Kasumi 1": {"test_system": "Kasumi 1", "assay": "Antiproliferative activity against human Kasumi 1 cells harboring wild type p53 assessed as induction of cell death incubated for 48 hrs by resazurin dye based fluorescence analysis", "assay_type": "functional", "settings": "read-out: LD50 (the source's name)"}, "[6]": {"biological_target": "T1, Nicotinamide phosphoribosyltransferase", "assay": "Inhibition of NAMPT (unknown origin)"}, "HL-60 [7]": {"test_system": "HL-60", "assay": "Antiproliferative activity against p53-null human HL-60 cells assessed as induction of cell death incubated for 48 hrs in presence of methyl-4-((1H-pyrrolo[3,2-c]pyridine-2-carboxamido)methyl)benzoate by resazurin dye based fluorescence analysis", "assay_type": "functional", "settings": "read-out: LD50 (the source's name)"}, "HL-60 [8]": {"test_system": "HL-60", "assay": "Antiproliferative activity against p53-null human HL-60 cells assessed as induction of cell death incubated for 48 hrs in presence of N-(4-(1-benzoylpiperidin-4-yl)butyl)-3-(pyridin-3-yl)acrylamide by resazurin dye based fluorescence analysis", "assay_type": "functional", "settings": "read-out: LD50 (the source's name)"}}, "data": [{"smiles": "CCCNNC(=O)CCCCCCNC(=O)c1cc2cnccc2[nH]1", "values": [{"measurement": "IC50", "setting": "MV4-11", "value": 87.7, "unit": "nM"}]}, {"smiles": "CCCNNC(=O)c1ccc(CNC(=O)c2cc3cnccc3o2)cc1", "values": [{"measurement": "IC50", "setting": "Histone deacetylase 1", "value": 5.5, "unit": "nM"}, {"measurement": "IC50", "setting": "Histone deacetylase 2", "value": 19.4, "unit": "nM"}, {"measurement": "IC50", "setting": "[1]", "value": 1.82, "unit": "nM"}]}, {"smiles": "CCCNNC(=O)c1ccc(CNC(=O)c2cc3ccccc3o2)cc1", "values": [{"measurement": "IC50", "setting": "[1]", "value": 0.43, "unit": "nM"}]}, {"smiles": "CCCNNC(=O)c1ccc(CNC(=O)/C=C/c2ccccn2)cc1", "values": [{"measurement": "IC50", "setting": "[2]", "value": "> 20000", "unit": "nM"}, {"measurement": "IC50", "setting": "MV4-11", "value": 85.2, "unit": "nM"}]}, {"smiles": "CCCNNC(=O)c1ccc(NC(=O)CCCCCCNC(=O)/C=C/c2cccnc2)cc1", "values": [{"measurement": "IC50", "setting": "[2]", "value": "> 20000", "unit": "nM"}, {"measurement": "IC50", "setting": "MV4-11", "value": 52.4, "unit": "nM"}]}, {"smiles": "CCCNNC(=O)CCCCCCNC(=O)/C=C/c1cccnc1", "values": [{"measurement": "IC50", "setting": "[2]", "value": 261, "unit": "nM"}, {"measurement": "IC50", "setting": "MV4-11", "value": 434, "unit": "nM"}]}, {"smiles": "CCCNNC(=O)c1ccc(CNC(=O)CCCCCCNC(=O)/C=C/c2cccnc2)cc1", "values": [{"measurement": "IC50", "setting": "[2]", "value": 261, "unit": "nM"}, {"measurement": "IC50", "setting": "MV4-11", "value": 2240, "unit": "nM"}]}, {"smiles": "CCCNNC(=O)CCCCCCCNC(=O)/C=C/c1cccnc1", "values": [{"measurement": "IC50", "setting": "[2]", "value": "> 20000", "unit": "nM"}, {"measurement": "IC50", "setting": "MV4-11", "value": 667, "unit": "nM"}]}, {"smiles": "COC(=O)c1ccc(CNC(=O)c2cc3cnccc3[nH]2)cc1", "values": [{"measurement": "IC50", "setting": "Histone deacetylase 1", "value": "> 20000", "unit": "nM"}, {"measurement": "IC50", "setting": "Histone deacetylase 2", "value": "> 20000", "unit": "nM"}, {"measurement": "IC50", "setting": "[2]", "value": 6870, "unit": "nM"}, {"measurement": "IC50", "setting": "MV4-11", "value": "> 50000", "unit": "nM"}, {"measurement": "IC50", "setting": "[1]", "value": "> 20000", "unit": "nM"}]}, {"smiles": "CCCNNC(=O)c1ccc(NC(=O)CCCCCCCNC(=O)/C=C/c2cccnc2)cc1", "values": [{"measurement": "IC50", "setting": "[2]", "value": "> 20000", "unit": "nM"}, {"measurement": "IC50", "setting": "MV4-11", "value": 174, "unit": "nM"}]}, {"smiles": "O=C(CCCCCCC(=O)Nc1ccccc1)NO", "note": "[VORINOSTAT]", "values": [{"measurement": "IC50", "setting": "[2]", "value": "> 20000", "unit": "nM"}]}, {"smiles": "CCCNNC(=O)c1ccc(CNC(=O)c2cc3cnccc3s2)cc1", "values": [{"measurement": "IC50", "setting": "[1]", "value": 2.01, "unit": "nM"}]}, {"smiles": "CCCNNC(=O)c1ccc(CNC(=O)/C=C/c2ccncc2)cc1", "values": [{"measurement": "IC50", "setting": "[2]", "value": "> 20000", "unit": "nM"}, {"measurement": "IC50", "setting": "MV4-11", "value": 67.7, "unit": "nM"}]}, {"smiles": "O=C(/C=C/c1cccnc1)NCCCCC1CCN(C(=O)c2ccccc2)CC1", "note": "[DAPORINAD]", "values": [{"measurement": "IC50", "setting": "Histone deacetylase 1", "value": "> 10000", "unit": "nM"}, {"measurement": "IC50", "setting": "Histone deacetylase 2", "value": "> 10000", "unit": "nM"}, {"measurement": "IC50", "setting": "MV4-11", "value": 15.3, "unit": "nM"}, {"measurement": "IC50", "setting": "[1]", "value": "> 10000", "unit": "nM"}, {"measurement": "GI50", "setting": "HL-60 [3]", "value": 12.1, "unit": "nM"}]}, {"smiles": "CCCNNC(=O)CCCCNC(=O)/C=C/c1cccnc1", "values": [{"measurement": "IC50", "setting": "[2]", "value": "> 20000", "unit": "nM"}, {"measurement": "IC50", "setting": "MV4-11", "value": 901, "unit": "nM"}]}, {"smiles": "CCCNNC(=O)c1ccc(CNC(=O)CCCCCCCNC(=O)/C=C/c2cccnc2)cc1", "values": [{"measurement": "IC50", "setting": "[2]", "value": 489, "unit": "nM"}, {"measurement": "IC50", "setting": "MV4-11", "value": 2190, "unit": "nM"}]}, {"smiles": "CCCNNC(=O)CCNC(=O)/C=C/c1cccnc1", "values": [{"measurement": "IC50", "setting": "Histone deacetylase 2", "value": "> 10000", "unit": "nM"}, {"measurement": "IC50", "setting": "[2]", "value": "> 20000", "unit": "nM"}, {"measurement": "IC50", "setting": "MV4-11", "value": "> 50000", "unit": "nM"}]}, {"smiles": "CCCNNC(=O)c1ccc(CNC(=O)c2cc3ccccc3[nH]2)cc1", "values": [{"measurement": "CC50", "setting": "[4]", "value": "> 100000", "unit": "nM"}, {"measurement": "CC50", "setting": "NB-4", "value": "> 100000", "unit": "nM"}, {"measurement": "GI50", "setting": "MV4-11", "value": 37.3, "unit": "nM"}, {"measurement": "CC50", "setting": "[5]", "value": "> 100000", "unit": "nM"}, {"measurement": "GI50", "setting": "HL-60 [3]", "value": 69.6, "unit": "nM"}, {"measurement": "CC50", "setting": "Kasumi 1", "value": 284, "unit": "nM"}]}, {"smiles": "Cc1ncsc1C(=O)N1CCC(CCCCNC(=O)c2cc3cnccc3[nH]2)CC1", "values": [{"measurement": "IC50", "setting": "[6]", "value": 5, "unit": "nM"}]}, {"smiles": "CCCNNC(=O)c1ccc(CNC(=O)/C=C/c2ccccc2)cc1", "values": [{"measurement": "CC50", "setting": "[4]", "value": "> 100000", "unit": "nM"}, {"measurement": "CC50", "setting": "NB-4", "value": "> 100000", "unit": "nM"}, {"measurement": "GI50", "setting": "MV4-11", "value": 16, "unit": "nM"}, {"measurement": "CC50", "setting": "HL-60 [7]", "value": 67.8, "unit": "nM"}, {"measurement": "CC50", "setting": "[5]", "value": "> 100000", "unit": "nM"}, {"measurement": "GI50", "setting": "HL-60 [3]", "value": 121, "unit": "nM"}, {"measurement": "CC50", "setting": "Kasumi 1", "value": "> 100000", "unit": "nM"}, {"measurement": "CC50", "setting": "HL-60 [8]", "value": 614, "unit": "nM"}]}]}
